Data taken from patent publication US20260250630A1, “PROTEOMICS-BASED RECEPTOR-LIGAND MATCHING FOR OPTIMIZING STEM CELL REPROGRAMMING” (OKINAWA INSTITUTE OF SCIENCE AND TECHNOLOGY SCHOOL …, priority 2021, published 2026).
Entries after “also recorded” stand apart in the source; their conditions may differ.

What was measured:
[1] = tested on: human ipsc-derived neurons (iN); assay: Spontaneous synaptic currents in iPSC-derived neurons (iN); format: cell-based; settings: addition of CNQX
Text: FIG. 14A-14E. The differentiated neurons (iN) in culture are making functional synapses. • A) DIC image of human ipsc-derived neurons (iN) in culture of DIV25.

[2] = tested on: calyx of Held presynaptic terminals; assay: EPSC recording at the calyx of Held, short-term depression and recovery; format: cell-based, rat
Text: (§1) Wistar rats (postnatal day 13-15) of either sex were killed by decapitation under isoflurane anesthesia. Transverse brainstem slices (175-200 μm in thickness) containing the medial nucleus of the trapezoid body (MNTB) were cut in ice-cold solution containing (in mM): 200 sucrose, 2.5 KCl, 26 NaHCO3, 1.25 NaH2PO4, 6 MgCl2, 10 glucose, 3 myo-inositol, 2 sodium pyruvate, and 0.5 sodium ascorbate (pH 7.4 when bubbled with 95% O2 and 5% CO2, 310-320 mOsm) by using vibroslicer (VT1200S, Leica). Before recording, slices were incubated for 1 h at 37° C. in standard aCSF solution containing (in mM): 125 NaCl, 2 KCl, 26 NaHCO3, 1.25 NaH2PO4, 2 CaCl2), 1 MgCl2, 10 glucose, 3 myo-inositol, 2 sodium pyruvate, and 0.5 sodium ascorbate (pH 7.4 when bubbled with 95% O2 and 5% CO2, 310-320 mOsm), and maintained thereafter at room temperature (24-26° C.). MNTB principal neurons and calyx of Held presynaptic terminals were visually identified using a ×40 water immersion objective attached to an upright microscope (BX51WI, Olympus).
For recording of evoked EPSCs, simultaneous pre- and postsynaptic whole-cell recordings were made from a calyceal nerve terminal and postsynaptic cell. Throughout the experiments, presynaptic recordings were made in current-clamp mode, whereas postsynaptic recordings were made in voltage-clamp mode at a holding potential of −70 mV. Pipette solution for recording of presynaptic action potentials (APs) contained (mM): 110 K-gluconate, 10 L-glutamate, 30 KCl, 10 HEPES, 0.5 EGTA, 12 Na2-phosphocreatine, 3 MgATP, 1 MgCl2, 0.3 Na2GTP (315 mOsm, pH 7.3 adjusted with KOH), and that for postsynaptic recording contained (mM): 110 CsF, 30 CsCl, 10 HEPES, 5 EGTA, 1 MgCl2, 5 QX314-CI (300 mOsm, pH 7.3 adjusted with CsOH). EPSCs were evoked by current injection (0.5-1 nA, 1 ms) into the presynaptic terminal via a recording glass electrode, in the presence of bicuculline methiodide (10 µM) and strychnine hydrochloride (0.5 μM).

[3] = tested on: calyx of Held presynaptic terminals; assay: Membrane capacitance measurement of exo-endocytosis at the calyx of Held; format: cell-based, rat; settings: LP-935509 1 or 10 µM in presynaptic terminals
Text: as §1
Membrane capacitance measurement from the calyx of Held presynaptic terminals, in whole-cell configurations, were made at room temperature (RT, 26-27° C.). Data were acquired at a sampling rate of 50 KHz, using an EPC-10 patch-clamp amplifier controlled by PatchMaster software (HEKA) after on-line filtering at 5 KHz. Calyx of Held terminals were voltage-clamped at a holding potential of −80 mV and a sinusoidal voltage command with a peak-to-peak voltage of 60 mV was applied at 1 KHz. Aak1 inhibitor LP935509 (Axon MedChem) was dissolved in DMSO (0.1%), which was also included in pipette solution, and infused from whole-cell pipettes into calyceal terminals by diffusion. […]
Single-pulse step depolarization to +10 mV for 20 ms was used to induce presynaptic QCa. […] The amplitude of exocytic Cm change (ΔCm) was measured as the difference of Cm values between the baseline and those at 450-500 ms after depolarization. […] The half decay time of endocytosis was measured from the midpoint of ΔCm decay.

calyx of Held = assay: Simultaneous pre- and postsynaptic action potential recordings, fidelity of neurotransmission; format: cell-based, rat; settings: p<0.01, n=6
Text: as §1
For recording postsynaptic action potentials (APs), simultaneous pre- and postsynaptic whole-cell recordings were made from calyceal terminals and postsynaptic MNTB principal neurons, both in current-clamp mode, in the presence of bicuculline methiodide (10 µM) and strychnine hydrochloride (0.5 μM). […]

[4] = from cumulative histograms of EPSC amplitudes

With `N#Cc1cc2[nH]c(=O)c(=O)[nH]c2cc1[N+](=O)[O-]` [CNQX] the “spontaneous synaptic currents in iN” value [1] was “abolished”.

In the case of `COc1ncccc1-c1cnn2ccc(N3CCN(C(=O)OC(C)C)CC3)nc12` [LP-935509], the “recovery from STD (time constants of Ca2+-dependent fast and Ca2+-independent slow components)” value ([2]; calyx of Held) is reported as “significantly prolonged”, the “short-term depression (STD) of EPSCs” value ([2]; calyx of Held loaded with LP-935509, 100 Hz train, 0.3 s, compared to controls, p<0.05, n=7) is reported as “stronger STD” and the “pool size of readily releasable SVs” value [2, 4] is reported as “reduced”. The release probability [2, 4] was “without affecting”, the “exocytosis (exocytic capacitance change, ΔCm)” value [3] was “did not indicate a significant reduction; also recorded: remained unchanged” and the “presynaptic Ca2+ current charge (QCa)” value [3] was “remained unchanged”. The endocytic capacitance change ([3]; p<0.05, n=6) was “significantly prolonged”, the “transmission fidelity (output/input AP ratio), level declined to” value (calyx of Held; 1 μM in presynaptic terminals, 100-Hz stimulation, within 40 s) was ~ 50% and the “fidelity of neurotransmission (ratio of postsynaptic APs to presynaptic APs)” value (calyx of Held; 1 μM) was “significantly impaired”.
